{"source": "patent US20030153009A1", "about": "“Method for influencing kinase activity with AG879” (priority 2002, published 2003)", "key": {"[1]": {"system": "RAS transformation of cells", "settings": "in vitro and in vivo (b6); malignant transformation of cells (b7); cited from earlier work"}, "[2]": {"system": "PAK1", "settings": "cited from earlier work"}, "[3]": {"target": "GST-PAK1 (Homo sapiens, UniProt Q13153)", "sequence (Q13153 whole entry, the tested form may be a part)": "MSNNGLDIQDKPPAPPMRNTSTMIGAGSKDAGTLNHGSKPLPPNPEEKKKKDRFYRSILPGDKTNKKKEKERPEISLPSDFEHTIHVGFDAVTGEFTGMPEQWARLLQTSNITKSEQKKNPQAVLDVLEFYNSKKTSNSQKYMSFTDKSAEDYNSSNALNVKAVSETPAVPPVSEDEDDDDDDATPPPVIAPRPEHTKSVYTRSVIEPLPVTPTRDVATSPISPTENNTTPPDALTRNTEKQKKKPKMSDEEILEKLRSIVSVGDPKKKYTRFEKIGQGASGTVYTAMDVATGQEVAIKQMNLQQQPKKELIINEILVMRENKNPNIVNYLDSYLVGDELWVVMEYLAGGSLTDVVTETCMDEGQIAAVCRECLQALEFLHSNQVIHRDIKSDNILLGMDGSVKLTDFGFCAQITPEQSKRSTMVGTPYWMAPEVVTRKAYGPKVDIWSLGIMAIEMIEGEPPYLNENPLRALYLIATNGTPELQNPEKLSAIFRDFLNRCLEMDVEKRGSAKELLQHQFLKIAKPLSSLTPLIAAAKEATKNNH", "test": "Kinase assay with fusion protein GST-PAK1", "format": "biochemical", "settings": "even at 10 μM", "protocol": "In follow up experiments a fusion protein “GST-PAK1” was prepared, and tested in the same way."}, "[4]": {"target": "T1, FAK-ETK interaction (Mus musculus, UniProt P97504)", "T1 construct": "blotted, using either anti-phospo Tyr, anti-ETK, or anti-PAK1 antibodies; endogenous in cells; host or cells: RAS cells (v-Ha-RAS transformed NIH 3T3 fibroblasts)", "T1 sequence (P97504 1-651)": "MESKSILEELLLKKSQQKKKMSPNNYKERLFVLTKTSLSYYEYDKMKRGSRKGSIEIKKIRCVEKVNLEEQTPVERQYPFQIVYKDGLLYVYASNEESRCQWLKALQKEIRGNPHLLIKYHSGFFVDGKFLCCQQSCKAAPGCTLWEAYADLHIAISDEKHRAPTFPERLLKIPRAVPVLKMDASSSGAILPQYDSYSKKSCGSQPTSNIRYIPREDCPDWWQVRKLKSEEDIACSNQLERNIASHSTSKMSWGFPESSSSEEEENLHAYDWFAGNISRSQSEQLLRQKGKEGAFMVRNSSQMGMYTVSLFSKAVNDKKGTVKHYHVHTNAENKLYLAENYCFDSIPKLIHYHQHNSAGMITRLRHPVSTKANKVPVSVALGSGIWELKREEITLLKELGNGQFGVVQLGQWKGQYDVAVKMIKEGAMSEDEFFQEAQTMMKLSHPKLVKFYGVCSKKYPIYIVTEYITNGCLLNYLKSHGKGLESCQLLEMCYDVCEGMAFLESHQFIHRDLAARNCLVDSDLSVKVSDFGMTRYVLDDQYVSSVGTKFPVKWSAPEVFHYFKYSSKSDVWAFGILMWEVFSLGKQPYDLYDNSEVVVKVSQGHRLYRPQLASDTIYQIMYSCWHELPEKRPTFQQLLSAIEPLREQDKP", "test": "FAK association with ETK in RAS cells", "format": "cell-based", "source_text": "(§1) In order to determine this, RAS cells were again serum starved, lysed, and immunoprecipitated using an anti-FAK antibody. The precipitates were then blotted, using either anti-phospo Tyr, anti-ETK, or anti-PAK1 antibodies, separately."}, "[5]": {"target": "T2, TEC (Homo sapiens, UniProt P42680)", "T2 sequence (P42680 1-631)": "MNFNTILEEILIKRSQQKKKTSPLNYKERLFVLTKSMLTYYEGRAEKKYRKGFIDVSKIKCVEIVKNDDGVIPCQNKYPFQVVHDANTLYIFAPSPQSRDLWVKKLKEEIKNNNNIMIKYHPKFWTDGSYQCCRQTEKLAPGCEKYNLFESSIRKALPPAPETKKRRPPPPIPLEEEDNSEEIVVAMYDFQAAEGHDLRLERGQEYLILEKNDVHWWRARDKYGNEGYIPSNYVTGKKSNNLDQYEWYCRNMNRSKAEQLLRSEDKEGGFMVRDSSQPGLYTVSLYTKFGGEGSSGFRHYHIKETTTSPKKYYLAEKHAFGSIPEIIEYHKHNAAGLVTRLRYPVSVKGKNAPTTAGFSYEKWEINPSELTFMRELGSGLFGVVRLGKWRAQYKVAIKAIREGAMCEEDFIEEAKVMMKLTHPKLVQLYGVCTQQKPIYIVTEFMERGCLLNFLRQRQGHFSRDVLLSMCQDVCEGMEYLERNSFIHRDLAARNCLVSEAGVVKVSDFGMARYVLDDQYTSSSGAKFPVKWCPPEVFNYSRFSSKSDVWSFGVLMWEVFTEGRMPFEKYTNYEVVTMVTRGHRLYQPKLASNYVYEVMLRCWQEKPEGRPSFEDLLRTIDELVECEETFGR", "test": "In vitro kinase assay, TEC family member TEC", "format": "biochemical", "settings": "concentration as high as 10 μM"}, "[6]": {"system": "FAK-PAK1 interaction", "test": "FAK-PAK1 interaction in RAS cells", "format": "cell-based", "settings": "10 nM", "source_text": "as §1"}, "[7]": {"target": "T3, ETK (Mus musculus, UniProt P97504)", "T3 sequence (P97504 1-651)": "T1 sequence (P97504 1-651)", "test": "Tyrosine phosphorylation of ETK in AG879-treated RAS cells (immunoprecipitation)", "format": "cell-based", "design": "endogenous in cells; host or cells: RAS cells (v-Ha-RAS transformed NIH 3T3 fibroblasts)", "settings": "1 hour", "protocol": "(§2) Experiments were designed to determine if AG879 affected the Tyr activity of ETK. To do so, serum starved RAS cells were treated, with varying concentrations of AG879 for 1 hour. Cell lysates were prepared using, as lysis buffer, 20 mM Tris-HCl (pH 7.5), 100 mM NaCl, 10% glycerol, 1% Nonidet P-40, 10 mM NaF, 100 μM NaVO3, 1 mM phenylmethylsulfonyl fluoride, and 100 units/ml of aprotonin. Lysates were treated either with a rabbit, anti-ETK antibody, as an anti-phospo Tyr antibody, to immunoprecipitate the enzyme, and an ETK kinase assay was performed, in accordance with Chen, et. al., Nat. Cell Biol. 3:439-444 (2001); and Bagheri-Yarmand, et. al., supra, both of which are incorporated by reference. Endogenous PAK1, associated with ETK was used as a substrate, in either the absence, or varying concentrations of AG879."}, "[8]": {"system": "FLK-1", "settings": "cited from earlier work"}, "[9]": {"system": "RAS cells", "test": "Anchorage dependent growth, follow up experiments", "format": "cell-based", "settings": "as much as 1 μM", "source_text": "The experiments which follow were designed to address this question."}, "[10]": {"target": "T3, ETK", "test": "In vitro kinase assay with ETK immunoprecipitated from RAS cells", "format": "biochemical", "design": "RAS cells were again lysed and immunoprecipitated with an anti-ETK antibody; endogenous in cells; host or cells: RAS cells (v-Ha-RAS transformed NIH 3T3 fibroblasts)", "protocol": "These experiments were designed to determined how AG879 inhibited ETK activity, i.e., was the inhibition direct, or indirect? To test this, RAS cells were again lysed and immunoprecipitated with an anti-ETK antibody, as described supra. Following this, the immunoprecipitates were used in an in vitro kinase assay, using no, or varying concentrations, of AG879 (0.001-10 μM), as described supra. Two, independent experiments, were carried out."}, "[11]": {"target": "T4, ITK (Homo sapiens, UniProt Q08881)", "T4 sequence (Q08881 1-620)": "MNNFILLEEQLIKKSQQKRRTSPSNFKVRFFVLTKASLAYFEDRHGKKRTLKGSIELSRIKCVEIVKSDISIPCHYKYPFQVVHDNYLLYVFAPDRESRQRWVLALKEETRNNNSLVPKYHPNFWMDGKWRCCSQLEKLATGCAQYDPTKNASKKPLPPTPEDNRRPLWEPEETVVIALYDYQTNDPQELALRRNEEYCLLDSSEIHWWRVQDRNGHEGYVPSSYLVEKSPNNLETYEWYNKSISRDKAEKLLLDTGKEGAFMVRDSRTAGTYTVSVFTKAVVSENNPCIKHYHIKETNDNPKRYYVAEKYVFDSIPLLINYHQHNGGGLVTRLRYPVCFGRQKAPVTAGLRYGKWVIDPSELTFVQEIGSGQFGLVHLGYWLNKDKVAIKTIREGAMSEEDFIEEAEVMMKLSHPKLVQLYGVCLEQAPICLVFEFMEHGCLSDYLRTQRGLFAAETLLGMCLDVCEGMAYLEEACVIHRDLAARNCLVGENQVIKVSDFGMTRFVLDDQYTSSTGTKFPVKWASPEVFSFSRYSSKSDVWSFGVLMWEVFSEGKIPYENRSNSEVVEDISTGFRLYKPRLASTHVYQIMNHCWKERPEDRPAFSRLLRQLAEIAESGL", "test": "In vitro kinase assay, TEC family member ITK", "format": "biochemical", "settings": "concentration as high as 10 μM"}, "[12]": {"system": "RAS cells (NIH 3T3 fibroblasts transformed with v-Ha-RAS)", "test": "Colony formation of RAS cells in 0.35% top agar, 3 weeks", "format": "cell-based", "settings": "colonies containing more than 100 cells, average of two experiments, read-out: IC50 for large colony formation", "quoted_text": "After three weeks, the colonies were stained, and counted, using standard methods. The control used was non-treated cells, plated into the same type of medium."}, "[13]": {"target": "T5, ETK-PAK1 association (Mus musculus, UniProt P97504)", "T5 construct": "RAS cells were again lysed and immunoprecipitated with an anti-ETK antibody; endogenous in cells; host or cells: RAS cells (v-Ha-RAS transformed NIH 3T3 fibroblasts)", "T5 sequence (P97504 1-651)": "T1 sequence (P97504 1-651)", "test": "ETK-PAK1 association in AG879-treated RAS cells", "format": "cell-based", "settings": "10 nM", "protocol": "as §2"}, "[14]": {"target": "T6, FAK (Mus musculus, UniProt P34152)", "T6 construct": "RAS cells were again serum starved, lysed, and immunoprecipitated using an anti-FAK antibody; endogenous in cells; host or cells: RAS cells (v-Ha-RAS transformed NIH 3T3 fibroblasts)", "T6 sequence (P34152 whole entry)": "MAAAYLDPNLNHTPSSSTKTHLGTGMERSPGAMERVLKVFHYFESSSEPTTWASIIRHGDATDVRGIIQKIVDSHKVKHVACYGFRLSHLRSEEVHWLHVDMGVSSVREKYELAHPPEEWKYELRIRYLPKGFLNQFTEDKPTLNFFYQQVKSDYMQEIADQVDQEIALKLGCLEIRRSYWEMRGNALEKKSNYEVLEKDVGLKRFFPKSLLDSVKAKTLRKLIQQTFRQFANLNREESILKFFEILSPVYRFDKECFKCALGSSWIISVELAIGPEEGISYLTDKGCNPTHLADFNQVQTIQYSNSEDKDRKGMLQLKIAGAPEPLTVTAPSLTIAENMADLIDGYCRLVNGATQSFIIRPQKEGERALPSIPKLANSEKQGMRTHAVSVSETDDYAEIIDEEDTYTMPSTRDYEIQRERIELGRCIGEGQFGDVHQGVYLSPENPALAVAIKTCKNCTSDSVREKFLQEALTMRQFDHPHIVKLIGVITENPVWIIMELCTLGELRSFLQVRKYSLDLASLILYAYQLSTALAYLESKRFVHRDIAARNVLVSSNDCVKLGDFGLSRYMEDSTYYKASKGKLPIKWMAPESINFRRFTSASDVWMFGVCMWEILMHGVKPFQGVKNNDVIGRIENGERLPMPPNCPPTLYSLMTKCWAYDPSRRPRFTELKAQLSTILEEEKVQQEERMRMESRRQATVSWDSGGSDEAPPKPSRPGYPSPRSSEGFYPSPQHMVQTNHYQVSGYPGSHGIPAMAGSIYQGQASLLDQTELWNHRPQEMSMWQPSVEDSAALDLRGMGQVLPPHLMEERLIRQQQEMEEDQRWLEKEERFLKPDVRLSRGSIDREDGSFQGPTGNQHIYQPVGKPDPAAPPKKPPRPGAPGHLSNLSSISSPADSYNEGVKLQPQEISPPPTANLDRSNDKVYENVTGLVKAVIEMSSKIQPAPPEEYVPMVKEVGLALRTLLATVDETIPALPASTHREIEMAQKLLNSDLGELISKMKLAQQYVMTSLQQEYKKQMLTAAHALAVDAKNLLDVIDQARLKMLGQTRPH", "test": "Tyr phosphorylation of FAK in RAS cells (anti-FAK immunoprecipitation, blot)", "format": "cell-based", "source_text": "as §1"}, "[15]": {"target": "BTK (Homo sapiens, UniProt Q06187)", "sequence (Q06187 whole entry, species assumed)": "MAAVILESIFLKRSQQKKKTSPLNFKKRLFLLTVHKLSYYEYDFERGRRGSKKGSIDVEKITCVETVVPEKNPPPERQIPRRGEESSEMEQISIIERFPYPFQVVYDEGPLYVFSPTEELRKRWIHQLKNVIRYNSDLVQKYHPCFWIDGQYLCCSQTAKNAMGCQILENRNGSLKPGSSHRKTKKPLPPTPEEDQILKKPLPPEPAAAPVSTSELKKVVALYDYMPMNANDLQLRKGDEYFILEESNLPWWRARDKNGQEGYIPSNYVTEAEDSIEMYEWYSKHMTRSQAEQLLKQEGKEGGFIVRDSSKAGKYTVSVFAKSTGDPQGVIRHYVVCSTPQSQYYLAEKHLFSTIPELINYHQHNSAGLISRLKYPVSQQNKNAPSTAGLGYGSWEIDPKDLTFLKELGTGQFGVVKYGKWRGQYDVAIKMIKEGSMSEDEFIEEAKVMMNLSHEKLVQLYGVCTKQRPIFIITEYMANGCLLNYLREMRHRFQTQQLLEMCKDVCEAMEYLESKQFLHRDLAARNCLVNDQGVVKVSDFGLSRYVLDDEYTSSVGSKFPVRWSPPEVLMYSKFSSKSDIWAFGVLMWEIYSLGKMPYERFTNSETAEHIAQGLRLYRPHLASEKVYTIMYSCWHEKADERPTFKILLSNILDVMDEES", "test": "In vitro kinase assay, TEC family member BTK", "format": "biochemical", "settings": "concentration as high as 10 μM"}, "[16]": {"system": "PAK1", "test": "PAK kinase assay on PAK1 immunoprecipitated from AG879-treated RAS cells", "format": "cell-based", "settings": "RAS cells serum starved, AG879 0.01-10 μM for 1 hour; all concentrations tested", "procedure": "RAS cells, which are NIH 3T3 fibroblasts transformed with v-Ha-RAS, were serum starved, overnight, and were then incubated with varying concentrations of AG879 (0.01-10 μM), for 1 hour. Following the hour of culture, the cells were lysed in lysis buffer (40 mM HEPES, pH 7.4, 1% Nonidet P-40, 1 mM EDTA, 100 mM NaCl, 25 mM NaF, 100 μM NaVO3, 1 MM phenylmethyl sulfonyl fluoride, and 100 units/ml aprotonin). Lysates were tested, via Bradford assay, to determine protein content, and those containing 1 mg of protein were admixed with an anti-PAK1 antibody to immunoprecipitate proteins.\nOnce the proteins were immunoprecipitated, they were analyzed in a PAK kinase assay, as described by Tang, et. al., Mol. Cell Biol 17: 4454-4464 (1997); He, et. al., Cancer J. 7:191-202 (2001), He, et. al., Cancer J 6:243-248 (2000); Obemeier, et. al., EMBO J 17:4328-4339 (1998), all of which are incorporated by reference."}, "[17]": {"system": "PAK1", "test": "Tyr phosphorylation of PAK1 in AG879-treated RAS cells", "format": "cell-based", "settings": "10 nM", "protocol": "as §2"}, "[18]": {"system": "RAS induced sarcomas", "settings": "nude mouse model; cited from earlier work"}, "[19]": {"target": "ErbB2 (Homo sapiens, UniProt P04626)", "settings": "cited from earlier work"}}}
{"compound": "Cc1ccc(-c2nn(C(C)(C)C)c3ncnc(N)c23)cc1", "note": "[PP1]", "values": [{"measurement": "RAS induced transformation", "setting": "[1]", "value": "block"}, {"measurement": "RAS induced PAK1 activation", "setting": "[2]", "value": "block"}]}
{"compound": "COc1cc(/C=C(\\C#N)C(N)=O)cc(CSc2nc3ccccc3s2)c1O", "note": "[AG825]", "values": [{"measurement": "RAS induced transformation", "setting": "[1]", "value": "block"}, {"measurement": "RAS induced PAK1 activation", "setting": "[2]", "value": "block"}, {"measurement": "IC50", "setting": "[2]; read-out: IC50, block of RAS induced activation of PAK1 and malignant transformation", "value": "~350", "unit": "nM"}]}
{"compound": "COc1cc2ncnc(Nc3cccc(Cl)c3)c2cc1OC", "note": "[AG1478]", "values": [{"measurement": "RAS induced transformation", "setting": "[1]", "value": "block"}, {"measurement": "RAS induced PAK1 activation", "setting": "[2]", "value": "block"}]}
{"compound": "AG879", "values": [{"measurement": "inhibition of kinase properties of GST-PAK1", "setting": "[3]", "value": "did not inhibit"}, {"measurement": "FAK association with ETK", "setting": "[4]; 10 nM", "value": "not at the lower concentration"}, {"measurement": "FAK association with ETK", "setting": "[4]; 100 nM", "value": "suppressed"}, {"measurement": "inhibitory effect on TEC", "setting": "[5]", "value": "no inhibitory effect"}, {"measurement": "FAK-PAK1 interaction", "setting": "[6]", "value": "inhibit"}, {"measurement": "tyrosine phosphorylation of ETK", "setting": "[7]; 10 nM", "value": "inhibited"}, {"measurement": "level of the ETK protein", "setting": "[7]", "value": "did not affect"}, {"measurement": "FLK-1 inhibition", "setting": "[8]", "value": "inhibitor"}, {"measurement": "effect on anchorage dependent growth", "setting": "[9]", "value": "did not effect"}, {"measurement": "Tyr phosphorylation of ETK", "setting": "[10]; 10 nM, ETK immunoprecipitate", "value": "inhibited"}, {"measurement": "Tyr phosphorylation of PAK1 by ETK", "setting": "[10]; 10 nM, ETK immunoprecipitate", "value": "inhibited"}, {"measurement": "IC50", "setting": "[10]; AG879 0.001-10 μM, two independent experiments", "value": "~5", "unit": "nM"}, {"measurement": "inhibitory effect on ITK", "setting": "[11]", "value": "no inhibitory effect"}, {"measurement": "IC50", "setting": "[12]", "value": "~10", "unit": "nM"}, {"measurement": "ETK-PAK1 association", "setting": "[13]", "value": "suppress"}, {"measurement": "Tyr phosphorylation of FAK", "setting": "[14]; 10 nM", "value": "not at the lower concentration"}, {"measurement": "Tyr phosphorylation of FAK", "setting": "[14]; 100 nM", "value": "suppressed"}, {"measurement": "inhibitory effect on BTK", "setting": "[15]", "value": "no inhibitory effect"}, {"measurement": "PAK1 kinase activity", "setting": "[16]", "value": "blocked quite strongly"}, {"measurement": "Tyr phosphorylation of PAK1", "setting": "[17]", "value": "reduced"}, {"measurement": "growth of RAS induced sarcomas in vivo", "setting": "[18]", "value": "suppressed"}, {"measurement": "ErbB2 inhibition", "setting": "[19]", "value": "inhibitor"}]}
